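A five-concentration, 48-hour dose response in 96-well plates underlies each endpoint, interpolated linearly between surrounding concentrations. GI50 marks 50% less growth.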 Active and inactive are the calls of the source. Rule as the data show it: active = GI50 up to about 1.1 µM and inactive = higher.
Key:
Assay in all cases: NCI anticancer screen, dose series, 48 h
TK-10 = tested on: TK-10
SR = tested on: SR
SK-MEL-2 = tested on: SK-MEL-2
MOLT-4 = tested on: MOLT-4
NCI-H226 = tested on: NCI-H226
SF-268 = tested on: SF-268
HCT-116 = tested on: HCT-116
OVCAR-4 = tested on: OVCAR-4
OVCAR-5 = tested on: OVCAR-5
M14 = tested on: M14
NCI/ADR-RES = tested on: NCI/ADR-RES
ACHN = tested on: ACHN
SNB-75 = tested on: SNB-75
SK-MEL-28 = tested on: SK-MEL-28
MDA-N = tested on: MDA-N
A549 = tested on: A549
UACC-257 = tested on: UACC-257
RPMI-8226 = tested on: RPMI-8226
COLO 205 = tested on: COLO 205
MDA-MB-435 = tested on: MDA-MB-435
SW-620 = tested on: SW-620
Malme-3M = tested on: Malme-3M
UO-31 = tested on: UO-31
HCT-15 = tested on: HCT-15
Hs-578T = tested on: Hs-578T
U-251 = tested on: U-251
SN12C = tested on: SN12C
SNB-19 = tested on: SNB-19
RXF 393 = tested on: RXF 393
T47D = tested on: T47D
K562 = tested on: K562
SF-539 = tested on: SF-539
CCRF-CEM = tested on: CCRF-CEM
NCI-H460 = tested on: NCI-H460
SK-MEL-5 = tested on: SK-MEL-5
A498 = tested on: A498
KM12 = tested on: KM12
HOP-62 = tested on: HOP-62
SK-OV-3 = tested on: SK-OV-3
NCI-H23 = tested on: NCI-H23
EKVX = tested on: EKVX
MCF7 = tested on: MCF7
UACC-62 = tested on: UACC-62
786-0 = tested on: 786-0
LOX IMVI = tested on: LOX IMVI
IGROV-1 = tested on: IGROV-1
OVCAR-3 = tested on: OVCAR-3
BT-549 = tested on: BT-549
DU-145 = tested on: DU-145
HOP-92 = tested on: HOP-92
HL-60 = tested on: HL-60
MDA-MB-231 = tested on: MDA-MB-231
HT-29 = tested on: HT-29
PC-3 = tested on: PC-3
OVCAR-8 = tested on: OVCAR-8
CAKI-1 = tested on: CAKI-1
SF-295 = tested on: SF-295
NCI-H522 = tested on: NCI-H522

Nc1nc(Nc2ccccc2)sc1C(=O)c1ccco1
GI50 (TK-10): 14.2 µM (inactive)
GI50 (SR): 5.97 µM (inactive)
GI50 (SK-MEL-2): 15.2 µM (inactive)
GI50 (MOLT-4): 13 µM (inactive)
GI50 (NCI-H226): 21.3 µM (inactive)
GI50 (SF-268): 26.7 µM (inactive)
GI50 (HCT-116): 12.8 µM (inactive)
GI50 (OVCAR-4): 19.9 µM (inactive)
GI50 (OVCAR-5): 34 µM (inactive)
GI50 (M14): 20.9 µM (inactive)
GI50 (NCI/ADR-RES): 23.9 µM (inactive)
GI50 (ACHN): 19.2 µM (inactive)
GI50 (SNB-75): 15.1 µM (inactive)
GI50 (SK-MEL-28): 32.8 µM (inactive)
GI50 (MDA-N): 17.2 µM (inactive)
GI50 (A549): 17.1 µM (inactive)
GI50 (UACC-257): 30.8 µM (inactive)
GI50 (RPMI-8226): 16.1 µM (inactive)
GI50 (COLO 205): 13.2 µM (inactive)
GI50 (MDA-MB-435): 16.4 µM (inactive)
GI50 (SW-620): 21.2 µM (inactive)
GI50 (Malme-3M): 26.9 µM (inactive)
GI50 (UO-31): 12.1 µM (inactive)
GI50 (HCT-15): 12.2 µM
GI50 (Hs-578T): 13.3 µM (inactive)
GI50 (U-251): 22.7 µM (inactive)
GI50 (SN12C): 17.7 µM (inactive)
GI50 (SNB-19): 19.9 µM (inactive)
GI50 (RXF 393): 14.2 µM (inactive)
GI50 (T47D): 14.9 µM (inactive)
GI50 (K562): 8.55 µM (inactive)
GI50 (SF-539): 15.7 µM (inactive)
GI50 (CCRF-CEM): 3.62 µM (inactive)
GI50 (NCI-H460): 12.8 µM (inactive)
GI50 (SK-MEL-5): 11.1 µM (inactive)
GI50 (A498): 17.8 µM (inactive)
GI50 (KM12): 11 µM (inactive)
GI50 (HOP-62): 27.5 µM (inactive)
GI50 (SK-OV-3): 28.6 µM (inactive)
GI50 (NCI-H23): 14.6 µM (inactive)
GI50 (EKVX): 15.3 µM (inactive)
GI50 (MCF7): 7.74 µM (inactive)
GI50 (UACC-62): 20.8 µM (inactive)
GI50 (786-0): 12.7 µM (inactive)
GI50 (LOX IMVI): 15.9 µM (inactive)
GI50 (IGROV-1): 15.6 µM (inactive)
GI50 (OVCAR-3): 5.69 µM (inactive)
GI50 (BT-549): 23.2 µM (inactive)
GI50 (DU-145): 14.7 µM (inactive)
GI50 (HOP-92): 35.6 µM (inactive)
GI50 (HL-60): 14.1 µM (inactive)
GI50 (MDA-MB-231): 34.7 µM (inactive)
GI50 (HT-29): 14.4 µM (inactive)
GI50 (PC-3): 22.6 µM (inactive)

O=C(O)CN1CCN2CCCCCN(CC1)CCN(CC(=O)O)CC2
GI50 (TK-10): > 100 µM (inactive)
GI50 (SR): 45.1 µM (inactive)
GI50 (SK-MEL-2): > 100 µM (inactive)
GI50 (NCI-H226): > 100 µM (inactive)
GI50 (HCT-116): 73.8 µM (inactive)
GI50 (OVCAR-4): > 100 µM (inactive)
GI50 (OVCAR-5): > 100 µM (inactive)
GI50 (M14): > 100 µM (inactive)
GI50 (NCI/ADR-RES): 22.1 µM (inactive)
GI50 (OVCAR-8): > 100 µM (inactive)
GI50 (ACHN): > 100 µM (inactive)
GI50 (SNB-75): 11.4 µM (inactive)
GI50 (SK-MEL-28): > 100 µM (inactive)
GI50 (MDA-N): > 100 µM (inactive)
GI50 (A549): > 100 µM (inactive)
GI50 (UACC-257): > 100 µM (inactive)
GI50 (RPMI-8226): > 100 µM (inactive)
GI50 (COLO 205): > 100 µM (inactive)
GI50 (MDA-MB-435): > 100 µM (inactive)
GI50 (SW-620): 83.9 µM (inactive)
GI50 (Malme-3M): 22.4 µM (inactive)
GI50 (UO-31): > 100 µM (inactive)
GI50 (HCT-15): > 100 µM
GI50 (Hs-578T): 31.8 µM (inactive)
GI50 (U-251): > 100 µM (inactive)
GI50 (SN12C): > 100 µM (inactive)
GI50 (SNB-19): > 100 µM (inactive)
GI50 (CAKI-1): > 100 µM (inactive)
GI50 (T47D): > 100 µM (inactive)
GI50 (K562): > 100 µM (inactive)
GI50 (SF-539): > 100 µM (inactive)
GI50 (CCRF-CEM): > 100 µM (inactive)
GI50 (SF-295): > 100 µM (inactive)
GI50 (NCI-H460): 91.4 µM (inactive)
GI50 (SK-MEL-5): > 100 µM (inactive)
GI50 (A498): > 100 µM (inactive)
GI50 (KM12): 84.7 µM (inactive)
GI50 (HOP-62): > 100 µM (inactive)
GI50 (SK-OV-3): > 100 µM (inactive)
GI50 (EKVX): > 100 µM (inactive)
GI50 (MCF7): > 100 µM (inactive)
GI50 (UACC-62): > 100 µM (inactive)
GI50 (786-0): > 100 µM (inactive)
GI50 (LOX IMVI): > 100 µM (inactive)
GI50 (IGROV-1): > 100 µM (inactive)
GI50 (OVCAR-3): > 100 µM (inactive)
GI50 (BT-549): > 100 µM (inactive)
GI50 (DU-145): > 100 µM (inactive)
GI50 (NCI-H522): 53.3 µM (inactive)
GI50 (HOP-92): > 100 µM (inactive)
GI50 (HL-60): 5.26 µM (inactive)
GI50 (MDA-MB-231): > 100 µM (inactive)
GI50 (HT-29): 31.2 µM (inactive)
GI50 (PC-3): > 100 µM (inactive)

— ChEMBL document CHEMBL1201862, “PubChem BioAssay data set” (2004)
